The source made the active and inactive calls. The rule behind the calls is not given here.

This note sets out measurements from PubChem BioAssay AID1259407 (Chemical Carcinogenesis Research Information System (CCRIS), 2018).

The subject of the data set is CCRIS mutagenicity, Ames/micronucleus/aberration tests. Nature of the data set: CCRIS mutagenicity studies.
[1] abbreviates: Test System: AMES SALMONELLA TYPHIMURIUM, Strain/Indicator: TA98, Metabolic Activation: NONE, Method: PREINCUBATION
The mark [2] stands for this setting: Test System: AMES SALMONELLA TYPHIMURIUM, Strain/Indicator: TA98, Metabolic Activation: NONE, Method: STANDARD PLATE.
The mark [3] stands for this setting: Test System: AMES SALMONELLA TYPHIMURIUM, Strain/Indicator: TA100, Metabolic Activation: NONE, Method: PREINCUBATION
Where [4] appears, read: Test System: AMES SALMONELLA TYPHIMURIUM, Strain/Indicator: TA100, Metabolic Activation: NONE, Method: STANDARD PLATE.
Where [5] appears, read: Test System: AMES SALMONELLA TYPHIMURIUM, Strain/Indicator: TA102, Metabolic Activation: NONE, Method: PREINCUBATION
Setting [6] is: Test System: AMES SALMONELLA TYPHIMURIUM, Strain/Indicator: TA1535, Metabolic Activation: HAMSTER, LIVER, S-9, AROCLOR 1254, Method: STANDARD PLATE.
The mark [7] stands for this setting: Test System: AMES SALMONELLA TYPHIMURIUM, Strain/Indicator: TA1535, Metabolic Activation: NONE, Method: STANDARD PLATE.

For the compound `Nc1cc2ccc3cccc4ccc(c1)c2c34`, the mutagenic call runs as follows: (Test System: AMES SALMONELLA TYPHIMURIUM, Strain/Indicator: TA98, Metabolic Activation: RAT, LIVER, S-9, AROCLOR 1254 (2 OR 4%), Method: STANDARD PLATE) “active; positive”; (Test System: AMES SALMONELLA TYPHIMURIUM, Strain/Indicator: TA100, Metabolic Activation: RAT, LIVER, S-9, AROCLOR 1254 (2%), Method: STANDARD PLATE) “active; positive”; (Test System: AMES SALMONELLA TYPHIMURIUM, Strain/Indicator: TA1535, Metabolic Activation: RAT, LIVER, S-9, AROCLOR 1254 (2%), Method: STANDARD PLATE) “inactive; negative”; (Test System: AMES SALMONELLA TYPHIMURIUM, Strain/Indicator: TA1537, Metabolic Activation: RAT, LIVER, S-9, AROCLOR 1254 (2%), Method: STANDARD PLATE) “active; positive”.
Regarding `Cc1cccc2c1c([N+](=O)[O-])cc[n+]2[O-]`, for the setting “Test System: UDS RODENT PRIMARY CELLS, Strain/Indicator: THY INCORP (NON-S-PHASE), Metabolic Activation: NONE, Method: AUTORADIOGRAPHY”, the mutagenic call is “active; positive”.
Consider `c1ccc2nccnc2c1`, for which the mutagenic call is “inactive; negative” (Test System: AMES SALMONELLA TYPHIMURIUM, Strain/Indicator: TA98, Metabolic Activation: HAMSTER, LIVER, S-9, AROCLOR 1254, Method: STANDARD PLATE); “inactive; negative” under setting [1]; “inactive; negative” under setting [2]; “active; positive” (Test System: AMES SALMONELLA TYPHIMURIUM, Strain/Indicator: TA98, Metabolic Activation: RAT, LIVER, S-9, AROCLOR 1254, Method: PREINCUBATION); “inactive; negative” (Test System: AMES SALMONELLA TYPHIMURIUM, Strain/Indicator: TA98, Metabolic Activation: RAT, LIVER, S-9, AROCLOR 1254, Method: STANDARD PLATE); “inactive; negative” (Test System: AMES SALMONELLA TYPHIMURIUM, Strain/Indicator: TA100, Metabolic Activation: HAMSTER, LIVER, S-9, AROCLOR 1254, Method: STANDARD PLATE). Further, the mutagenic call runs as follows: under setting [3], “inactive; negative”; under setting [4], “inactive; negative”; (Test System: AMES SALMONELLA TYPHIMURIUM, Strain/Indicator: TA100, Metabolic Activation: RAT, LIVER, S-9, AROCLOR 1254, Method: PREINCUBATION) “inactive; negative”; (Test System: AMES SALMONELLA TYPHIMURIUM, Strain/Indicator: TA100, Metabolic Activation: RAT, LIVER, S-9, AROCLOR 1254, Method: STANDARD PLATE) “inactive; negative”; under setting [5], “inactive; negative”; (Test System: AMES SALMONELLA TYPHIMURIUM, Strain/Indicator: TA102, Metabolic Activation: RAT, LIVER, S-9, AROCLOR 1254, Method: PREINCUBATION) “inactive; negative”. Also, the mutagenic call under setting [6] was “inactive; negative”; the mutagenic call under setting [7] is “inactive; negative”; the mutagenic call (Test System: AMES SALMONELLA TYPHIMURIUM, Strain/Indicator: TA1535, Metabolic Activation: RAT, LIVER, S-9, AROCLOR 1254, Method: STANDARD PLATE) was “inactive; negative”; the mutagenic call (Test System: AMES SALMONELLA TYPHIMURIUM, Strain/Indicator: TA1537, Metabolic Activation: HAMSTER, LIVER, S-9, AROCLOR 1254, Method: STANDARD PLATE) was “inactive; negative”; the mutagenic call (Test System: AMES SALMONELLA TYPHIMURIUM, Strain/Indicator: TA1537, Metabolic Activation: NONE, Method: STANDARD PLATE) is “inactive; negative”; the mutagenic call (Test System: AMES SALMONELLA TYPHIMURIUM, Strain/Indicator: TA1537, Metabolic Activation: RAT, LIVER, S-9, AROCLOR 1254, Method: STANDARD PLATE) is “inactive; negative”. Besides, the mutagenic call is, setting by setting: (Test System: AMES SALMONELLA TYPHIMURIUM, Strain/Indicator: TA1538, Metabolic Activation: HAMSTER, LIVER, S-9, AROCLOR 1254, Method: STANDARD PLATE) “inactive; negative”; (Test System: AMES SALMONELLA TYPHIMURIUM, Strain/Indicator: TA1538, Metabolic Activation: NONE, Method: STANDARD PLATE) “inactive; negative”; (Test System: AMES SALMONELLA TYPHIMURIUM, Strain/Indicator: TA1538, Metabolic Activation: RAT, LIVER, S-9, AROCLOR 1254, Method: STANDARD PLATE) “inactive; negative”; (Test System: Mouse lymphoma, Strain/Indicator: L5178Y (tk+/tk-), Metabolic Activation: None, Method: Suspension/plate) “inactive; negative”; (Test System: Mouse lymphoma, Strain/Indicator: L5178Y (tk+/tk-), Metabolic Activation: Rat, Liver, S-9, Aroclor 1254, Method: Suspension/plate) “active; positive”.
`CC\C=C/C=C\C=C/C=C\C=C/OCCC`: under setting [3], the mutagenic call is “active; positive”.
Regarding `Oc1ccc(Cl)cc1Cc1cc(Cl)ccc1O`, the mutagenic call was “inactive; negative” (Test System: AMES SALMONELLA TYPHIMURIUM, Strain/Indicator: TA98, Metabolic Activation: HAMSTER, LIVER, S-9, AROCLOR 1254 (30%), Method: PREINCUBATION); “inactive; negative” under setting [1]; “inactive; negative” (Test System: AMES SALMONELLA TYPHIMURIUM, Strain/Indicator: TA98, Metabolic Activation: RAT, LIVER, S-9, AROCLOR 1254 (30%), Method: PREINCUBATION); “inactive; negative” under setting [3]; “inactive; negative” (Test System: AMES SALMONELLA TYPHIMURIUM, Strain/Indicator: TA1535, Metabolic Activation: HAMSTER, LIVER, S-9, AROCLOR 1254 (30%), Method: PREINCUBATION).
Consider `CN(Cc1cccc(Br)c1)N=O`, for which the mutagenic call under setting [6] is “active; positive” and the mutagenic call under setting [7] is “inactive; negative”.
In the case of `O=[N+]([O-])c1cc(-c2ccccc2)ccc1O`, under setting [1], the mutagenic call was “inactive; negative”.
Take `O=C(Nc1cccc(Cl)c1)c1csc([N+](=O)[O-])c1`: the mutagenic call runs as follows: under setting [2], “active; positive”; under setting [4], “active; positive”.
Turning to `Oc1ccc2c(c1)sc1ccccc12`, the mutagenic call (Test System: CHINESE HAMSTER OVARY, Strain/Indicator: CHO-K1-BH4 (HGPRT)/6-THIOGUANINE, Metabolic Activation: RAT, LIVER, S-9, AROCLOR (4%)) was “active; positive”.
As for `C=Cc1c(C)c2[n-]c1=CC1=NC(=CC3=C(C)C(=C([O-])[O-])C(=N3)C(CC(=O)[O-])=C3N=C(C=2)C(C)C3CCC(=O)[O-])C(CC)=C1C.[Cu+2].[Na+].[Na+].[Na+]` (stereo not given), the mutagenic call is, setting by setting: (Test System: AMES SALMONELLA TYPHIMURIUM, Strain/Indicator: TA97, Metabolic Activation: NONE, Method: PREINCUBATION) “inactive; negative”; (Test System: AMES SALMONELLA TYPHIMURIUM, Strain/Indicator: TA97, Metabolic Activation: S-9, Method: PREINCUBATION) “inactive; negative”; under setting [5], “inactive; negative”; (Test System: AMES SALMONELLA TYPHIMURIUM, Strain/Indicator: TA102, Metabolic Activation: S-9, Method: PREINCUBATION) “inactive; negative”; (Test System: CHINESE HAMSTER OVARY, Strain/Indicator: CHO-K1 (HGPRT)/6-THIOGUANINE) “inactive; negative”.
